Laboratory results from patent US6365053B1, “Removal of H2S in drilling mud” (Statoil Asa, priority 1998, dated 2002).

Legend:
[1] = H2S absorption by iron oxalate at low concentrations of H2S, GGT analysis (Example 3); conditions: low H2S concentration, 200 mg iron oxalate in 15 ml mud, 1.5 ml solution D
Procedure: Measurements at low concentrations of H2S were also carried out.
From this mixture a new sample of 1 ml mud was taken out with a syringe and mixed with 20 ml of water and analysed in GGT (Garret Gas Train) whereby the mixture was stirred with a magnetic stirrer.

[2] = H2S absorption by iron oxalate in oil based mud (interdrill 1.62), GGT analysis (Example 2); conditions: 400 mg iron oxalate in 15 ml interdrill 1.62 oil based mud, water phase pH 12.5, 1.5 ml solution D
Procedure: In A, B and C iron oxalate was added.
The jar containing the mixture was then shaken. From this mixture a new sample of 1 ml mud was taken out with a syringe. This new sample consisting of 1 ml mud was mixed with 20 ml of water and further analysed in GGT (Garret Gas Train) whereby the mixture was stirred with a magnetic stirrer.
The mud which was used in example 2 was of the type interdrill 1.62 (density of the mud), wherein the pH value in the water phase is 12.5.

O=C([O-])C(=O)[O-].[Fe+2] [iron oxalate, iron(II) oxalate]
Amount of remaining H2S in the mud sample measured by GGT analysis ([1]; ageing 1 hour): 8.5 ppm | Amount of remaining H2S in the mud sample measured by GGT analysis ([1]; ageing 18 hours): 0 ppm | Amount of remaining H2S in the mud sample measured by GGT analysis ([1]; ageing 25 hours): 0 ppm | Amount of remaining H2S in the mud sample measured by GGT analysis ([2]; ageing 17 hours): 51 ppm | Amount of remaining H2S in the mud sample measured by GGT analysis ([2]; ageing 40 hours): 34 ppm | Amount of remaining H2S in the mud sample measured by GGT analysis ([2]; ageing 64 hours): 57 ppm
